From the NIST ThermoML archive (doi:10.1016/j.fluid.2018.03.018)
± gives the expanded uncertainty stated by the source.

Assay: xn = mol fraction of the nth substance listed
Conditions: 101 kPa, Liquid, Vibrating tube method

SMILES | mass density (298.15 K, x1 = 0.25) [kg/m3] | mass density (303.15 K, x1 = 0.25) [kg/m3] | mass density (308.15 K, x1 = 0.25) [kg/m3] | mass density (313.15 K, x1 = 0.25) [kg/m3] | mass density (318.15 K, x1 = 0.25) [kg/m3] | mass density (323.15 K, x1 = 0.25) [kg/m3] | mass density (293.15 K, x1 = 0.3333) [kg/m3] | mass density (298.15 K, x1 = 0.3333) [kg/m3] | mass density (303.15 K, x1 = 0.3333) [kg/m3] | mass density (308.15 K, x1 = 0.3333) [kg/m3] | mass density (313.15 K, x1 = 0.3333) [kg/m3] | mass density (318.15 K, x1 = 0.3333) [kg/m3] | mass density (323.15 K, x1 = 0.3333) [kg/m3] | mass density (328.15 K, x1 = 0.3333) [kg/m3] | mass density (333.15 K, x1 = 0.3333) [kg/m3] | mass density (338.15 K, x1 = 0.3333) [kg/m3] | mass density (343.15 K, x1 = 0.3333) [kg/m3]
C[P+](c1ccccc1)(c1ccccc1)c1ccccc1.[Br-] [methyltriphenylphosphonium bromide] + OCC(O)CO | 1295.8 ± 1.1 | 1292.4 ± 1.1 | 1288.9 ± 1.1 | 1285.3 ± 1.1 | 1281.7 ± 1.1 | 1278.1 ± 1.1 | – | – | – | – | – | – | – | – | – | – | –
C[P+](c1ccccc1)(c1ccccc1)c1ccccc1.[Br-] [methyltriphenylphosphonium bromide] + OCCO | 1249.1 ± 1.1 | 1245.7 ± 1.1 | 1242.2 ± 1.1 | 1238.8 ± 1.1 | 1235.4 ± 1.1 | 1231.9 ± 1.1 | – | – | – | – | – | – | – | – | – | – | –
CC[N+](CC)(CC)CC.[Cl-] [tetraethylammonium chloride] + OCC(O)CO | – | – | – | – | – | – | 1124 ± 1 | 1121 ± 1 | 1118.1 ± 1 | 1115.1 ± 1 | 1112.3 ± 1 | 1109.4 ± 1 | 1106.6 ± 1 | 1103.8 ± 1 | 1101 ± 1 | 1098.2 ± 1 | 1095.4 ± 1
CC[N+](CC)(CC)CC.[Cl-] [tetraethylammonium chloride] + OCCO | – | – | – | – | – | – | 1052.3 ± 1 | 1049.4 ± 1 | 1046.6 ± 1 | 1043.7 ± 1 | 1040.9 ± 1 | 1038.1 ± 1 | 1035.3 ± 1 | 1032.5 ± 1 | 1029.7 ± 1 | 1026.9 ± 1 | 1024.1 ± 1
